Data as given in PMC8162404, “Proteomimetic surface fragments distinguish targets by function” (Chemical Science, 2020).
Where two headings read alike, the source gives them in different places.

Assays:
CaM = target: T1, CaM (Bos taurus, UniProt P62157); test: Pull-down assay with immobilized protein and LSM libraries; type: binding, bovine; details: 1:2 stoichiometry assumed, read-out: Surface mapping KD (apparent)
T1 construct: made in house; host or cells: E. coli BL21 (DE3)
Summary of the method: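 CaM buffer was 20 mM HEPES pH 7.4, 150 mM NaCl, 5 mM CaCl2. LSM sublibrary members ([…]) incubated 30 min, RT, with equimolar His-tagged protein on Co-NTA resin. HPLC-MS measured unbound probes; bound fraction relative to resin-only background gave dissociation constants.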

Gal-1 [1] = target: T2, Gal-1 (Homo sapiens, UniProt P09382); test: as above; type: binding; details: 1:1 binding assumed, read-out: Surface mapping KD (apparent)
T2 construct: made in house; host or cells: E. coli BL21(DE3)
Summary of the method: (§1)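 Buffers were HEPES pH 7.4 with 150 mM NaCl, plus 1 mM TCEP and 1 mM CaCl2 (50 mM HEPES) for S100A4 and S100B, 1 mM TCEP for Gal-1, and no additive for RecQ-WH. Immobilized protein at 64 µM was equilibrated 30 min with the LSM sublibrary, and unbound probes were measured by LC-MS.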

S100A4 = target: T3, S100A4 (Homo sapiens, UniProt P26447); test: as above; type: binding; details: 1:1 binding assumed, read-out: Surface mapping KD (apparent)
T3 construct: made in house; host or cells: Escherichia coli BL21(DE3)
Summary of the method: as §1

S100B = target: T4, S100B (Homo sapiens, UniProt P04271); test: as above; type: binding; details: 1:1 binding assumed, read-out: Surface mapping KD (apparent)
T4 construct: made in house; host or cells: Escherichia coli BL21(DE3)
T4 sequence (P04271 1-92): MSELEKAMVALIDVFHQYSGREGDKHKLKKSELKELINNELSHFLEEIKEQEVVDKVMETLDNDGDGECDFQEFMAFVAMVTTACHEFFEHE
Summary of the method: as §1

Gal-1 [2] = target: T2, Gal-1; test: Competition pull-down with lactose; type: binding; details: H14 library; lactose 10 mM; read-out: Surface mapping KD (apparent), competition
Experimental: Interactions between the H14 helical LSMs and the targets were abundant, but safe recognition of the native PPI interfaces on the targets is a criterion of druggability. To gain insight into the ability of the LSMs to detect orthosteric spots, we carried out pull-down assays in the presence of the native ligands (Table 2) of the targets (Fig. 5). For highlighting the effect of the competitor on the binding fingerprints, KD ratios and the LSM replacement percentages were calculated and are represented as heat maps (see ESI, Fig. S7 ^†). […] This could be explained by the glycan selective native recognition domain of the protein. We note that the replacement pattern for a single probe can, in theory, be complex. […] Moreover, a single probe can bind to both orthosteric and non-orthosteric spots, which limits overall displacement levels. To avoid overlooking interesting orthosteric weak binders, direct replacement levels were assessed (see ESI, Fig. S7 ^†).
Pull-down assay and data analysis
Pull-down assay. LSM sublibraries were screened separately as previously described.(2) Experiments were performed in the following buffers: (i) 20 mM pH 7.4 HEPES, 150 mM NaCl, 5 mM CaCl2 for CaM; (ii) 50 mM pH 7.4 HEPES, 150 mM NaCl, 1 mM TCEP, 1 mM CaCl2 for S100 proteins; (iii) 20 mM pH 7.4 HEPES, 150 mM NaCl, 1 mM TCEP for Gal-1 and (iv) 20 mM pH 7.4 HEPES, 150 mM NaCl for RecQ-WH. Assays were performed in paper filter spin cups (Thermo Scientific) with sample volumes of 100 µl. Hexahistidine-tagged proteins were immobilized on previously washed Co-NTA resin (TALON, Takara Bio USA, Inc., Mountain View, CA) in 64 µM final concentration. LSM sublibrary was added, in which each of the 64 library members were used at a concentration of 1 µM. Samples were incubated at room temperature for 30 min with shaking at 100 rpm. Then, samples were centrifuged at 1000 rpm for 2 min and washed with 100 µl pull-down buffer to remove unbound compounds.
The control experiments were performed using the same compounds and the resin but without the immobilized protein. In case of competitive assays, competitor peptides were added to LSM sublibrary samples in 200 µM final concentration. In the case of Gal-1, lactose (competitor) was used in a concentration of 10 mM. Experiments were performed at least twice. Mean […]
LC-MS methods and parameters. HPLC/ESI-MS analysis was used to characterize the samples from the pull-down assay. LC-MS analysis was performed with a Thermo Scientific Dionex UltiMate 3000 HPLC system interfaced to an LTQ ion trap mass spectrometer (Thermo Electron Corp., San Jose, CA, USA). Samples were injected onto an Aeris Widepore XB-C18 (250 x 4.6 mm) analytical HPLC column using gradient elution 5-80 % solution B during 25 minutes. For pull-down samples, eluent composition was 0.1% acetic acid in distilled water (Solution A) and 0.1% acetic acid in acetonitrile (solution B). Mass spectra were acquired in full scan mode from 200 to 2000 m/z range. For overlapping peaks, selective reaction monitoring (SRM) was […]
MS data analysis. Thermo Xcalibur 2.2 software was used for peak identification and integration. The majority of the foldameric fragments could be resolved independently via HPLC-MS/MS measurements based on molecular weight, MS fragmentation pattern and retention time. Peaks of some foldamers with β3-hIle or β3-hLeu in position R2 could not be resolved, these were integrated and averaged. In the processing method, each sample component was associated to a chromatographic peak based on previously identified mass (m/z) and retention time (ref (2) and Table S7-10). Using ICIS peak detection algorithm, the general detection and integration criteria were: smoothing points: 5, baseline window: 80, area noise factor: 5, peak noise factor: 10. Using these processing setups, all raw data files were reprocessed together and analyzed. Errors in peak identification during the automatic processing were corrected manually.
Calculation of the discussed parameters […]

T3 sequence (P26447 whole entry): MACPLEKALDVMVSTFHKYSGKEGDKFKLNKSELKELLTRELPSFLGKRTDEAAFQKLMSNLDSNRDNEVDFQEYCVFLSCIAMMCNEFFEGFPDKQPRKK
T2 sequence (P09382 whole entry): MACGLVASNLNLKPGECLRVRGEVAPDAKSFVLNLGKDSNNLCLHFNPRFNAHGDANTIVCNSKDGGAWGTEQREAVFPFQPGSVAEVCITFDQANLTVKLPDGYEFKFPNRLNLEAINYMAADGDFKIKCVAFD

SMILES | Kd (CaM; H12 library) [µM] | Kd (Gal-1 [1]; H12 library) [µM] | Kd (S100A4; H12 library) [µM] | Kd (S100B; H12 library) [µM] | Kd (Gal-1 [2]) [µM] | further results
N=C(N)NCCC[C@@H](CC(=O)N[C@H]1CCC[C@@H]1C(=O)N[C@H]1CCC[C@@H]1C(=O)N[C@H](CC(=O)N[C@H]1CCC[C@@H]1C(=O)N[C@H]1CCC[C@@H]1C(N)=O)Cc1c[nH]c2ccccc12)NC(=O)[C@H]1CCC[C@@H]1NC(=O)[C@H]1CCC[C@@H]1N [H12 RW] | 19 | 126 | 95 | 25 | – | –
N=C(N)NCCC[C@@H](CC(=O)N[C@H]1CCC[C@@H]1C(=O)N[C@H]1CCC[C@@H]1C(=O)N[C@H](CC(=O)N[C@H]1CCC[C@@H]1C(=O)N[C@H]1CCC[C@@H]1C(N)=O)Cc1ccc(O)cc1)NC(=O)[C@H]1CCC[C@@H]1NC(=O)[C@H]1CCC[C@@H]1N [H12 RY] | 381 | 198 | 400 | 89 | – | –
CC(C)[C@@H](CC(=O)N[C@H]1CCC[C@@H]1C(=O)N[C@H]1CCC[C@@H]1C(=O)N[C@H](CC(=O)N[C@H]1CCC[C@@H]1C(=O)N[C@H]1CCC[C@@H]1C(N)=O)Cc1ccccc1)NC(=O)[C@H]1CCC[C@@H]1NC(=O)[C@H]1CCC[C@@H]1N [H12 VF] | 128 | 388 | 95 | 45 | – | –
CC[C@H](C)[C@@H](CC(=O)N[C@H]1CCC[C@@H]1C(=O)N[C@H]1CCC[C@@H]1C(N)=O)NC(=O)[C@H]1CCC[C@@H]1NC(=O)[C@H]1CCC[C@@H]1NC(=O)C[C@@H](NC(=O)[C@H]1CCC[C@@H]1NC(=O)[C@H]1CCC[C@@H]1N)C(C)C [H12 VI] | 164 | 469 | 190 | 92 | – | –
CC(C)C[C@@H](CC(=O)N[C@H]1CCC[C@@H]1C(=O)N[C@H]1CCC[C@@H]1C(N)=O)NC(=O)[C@H]1CCC[C@@H]1NC(=O)[C@H]1CCC[C@@H]1NC(=O)C[C@@H](NC(=O)[C@H]1CCC[C@@H]1NC(=O)[C@H]1CCC[C@@H]1N)C(C)C [H12 VL] | 164 | 469 | 190 | 92 | – | –
CC(C)[C@@H](CC(=O)N[C@H]1CCC[C@@H]1C(=O)N[C@H]1CCC[C@@H]1C(=O)N[C@H](CC(=O)N[C@H]1CCC[C@@H]1C(=O)N[C@H]1CCC[C@@H]1C(N)=O)Cc1c[nH]c2ccccc12)NC(=O)[C@H]1CCC[C@@H]1NC(=O)[C@H]1CCC[C@@H]1N [H12 VW] | 56 | 346 | 184 | 31 | – | –
CC(C)[C@@H](CC(=O)N[C@H]1CCC[C@@H]1C(=O)N[C@H]1CCC[C@@H]1C(=O)N[C@H](CC(=O)N[C@H]1CCC[C@@H]1C(=O)N[C@H]1CCC[C@@H]1C(N)=O)Cc1ccc(O)cc1)NC(=O)[C@H]1CCC[C@@H]1NC(=O)[C@H]1CCC[C@@H]1N [H12 VY] | 247 | 413 | 392 | 210 | – | –
NC(=O)[C@H]1CCC[C@@H]1NC(=O)[C@H]1CCC[C@@H]1NC(=O)C[C@H](Cc1ccccc1)NC(=O)[C@H]1CCC[C@@H]1NC(=O)[C@H]1CCC[C@@H]1NC(=O)C[C@H](Cc1c[nH]c2ccccc12)NC(=O)[C@H]1CCC[C@@H]1NC(=O)[C@H]1CCC[C@@H]1N [H12 WF] | 9 | 117 | 135 | 7 | – | –
CC[C@H](C)[C@@H](CC(=O)N[C@H]1CCC[C@@H]1C(=O)N[C@H]1CCC[C@@H]1C(N)=O)NC(=O)[C@H]1CCC[C@@H]1NC(=O)[C@H]1CCC[C@@H]1NC(=O)C[C@H](Cc1c[nH]c2ccccc12)NC(=O)[C@H]1CCC[C@@H]1NC(=O)[C@H]1CCC[C@@H]1N [H12 WI] | 134 | 174 | 164 | 18 | – | –
CC(C)C[C@@H](CC(=O)N[C@H]1CCC[C@@H]1C(=O)N[C@H]1CCC[C@@H]1C(N)=O)NC(=O)[C@H]1CCC[C@@H]1NC(=O)[C@H]1CCC[C@@H]1NC(=O)C[C@H](Cc1c[nH]c2ccccc12)NC(=O)[C@H]1CCC[C@@H]1NC(=O)[C@H]1CCC[C@@H]1N [H12 WL] | 27 | 200 | 105 | 21 | – | –
NC(=O)[C@H]1CCC[C@@H]1NC(=O)[C@H]1CCC[C@@H]1NC(=O)C[C@H](Cc1c[nH]c2ccccc12)NC(=O)[C@H]1CCC[C@@H]1NC(=O)[C@H]1CCC[C@@H]1NC(=O)C[C@H](Cc1c[nH]c2ccccc12)NC(=O)[C@H]1CCC[C@@H]1NC(=O)[C@H]1CCC[C@@H]1N [H12 WW] | 413 | 151 | 56 | 8 | – | –
NC(=O)[C@H]1CCCC[C@@H]1NC(=O)C[C@H](CCC(=O)O)NC(=O)[C@H]1CCCC[C@@H]1NC(=O)[C@H]1CCCC[C@@H]1NC(=O)C[C@H](CC(=O)O)NC(=O)[C@H]1CCCC[C@@H]1N [H14 DE] | – | – | – | – | 318 | –
NC(=O)[C@H]1CCCC[C@@H]1NC(=O)C[C@H](CO)NC(=O)[C@H]1CCCC[C@@H]1NC(=O)[C@H]1CCCC[C@@H]1NC(=O)C[C@H](CC(=O)O)NC(=O)[C@H]1CCCC[C@@H]1N [H14 DS] | – | – | – | – | 415 | –
C[C@@H](O)[C@@H](CC(=O)N[C@H]1CCCC[C@@H]1C(N)=O)NC(=O)[C@H]1CCCC[C@@H]1NC(=O)[C@H]1CCCC[C@@H]1NC(=O)C[C@H](CC(=O)O)NC(=O)[C@H]1CCCC[C@@H]1N [H14 DT] | – | – | – | – | 282 | –
CC(C)[C@@H](CC(=O)N[C@H]1CCCC[C@@H]1C(N)=O)NC(=O)[C@H]1CCCC[C@@H]1NC(=O)[C@H]1CCCC[C@@H]1NC(=O)C[C@H](CC(=O)O)NC(=O)[C@H]1CCCC[C@@H]1N [H14 DV] | – | – | – | – | 316 | –
NC(=O)[C@H]1CCCC[C@@H]1NC(=O)C[C@H](CC(=O)O)NC(=O)[C@H]1CCCC[C@@H]1NC(=O)[C@H]1CCCC[C@@H]1NC(=O)C[C@H](CCC(=O)O)NC(=O)[C@H]1CCCC[C@@H]1N [H14 ED] | – | – | – | – | 318 | –
NC(=O)[C@H]1CCCC[C@@H]1NC(=O)C[C@H](CCC(=O)O)NC(=O)[C@H]1CCCC[C@@H]1NC(=O)[C@H]1CCCC[C@@H]1NC(=O)C[C@H](CCC(=O)O)NC(=O)[C@H]1CCCC[C@@H]1N [H14 EE] | – | – | – | – | 353 | –
CC(C)C[C@@H](CC(=O)N[C@H]1CCCC[C@@H]1C(=O)N[C@H]1CCCC[C@@H]1C(=O)N[C@@H](CCC(N)=O)CC(=O)N[C@H]1CCCC[C@@H]1C(N)=O)NC(=O)[C@H]1CCCC[C@@H]1N [H14 LQ] | – | – | – | – | – | Kd (CaM; H14 library): 275 µM; Kd (Gal-1 [1]; H14 library): 343 µM; Kd (S100A4; H14 library): 304 µM; Kd (S100B; H14 library): 435 µM
